Source: ChEMBL document CHEMBL1147567, “Neuroprotective effects of flavones on hydrogen peroxide-induced apoptosis in SH-SY5Y neuroblostoma cells” (Bioorg Med Chem Lett, 2004)

Legend:
[1] = Free radical scavenging activity of DPPH was determined
SH-SY5Y [2] = test: Percent increase against SH-SY5Y human neuroblastoma cell viability induced by hydrogen peroxide at 50 uM concentration; format: functional
SH-SY5Y [3] = test: Percent increase against SH-SY5Y human neuroblastoma cell viability induced by hydrogen peroxide at 10 uM concentration; format: functional
SH-SY5Y [4] = test: Percent increase against SH-SY5Y human neuroblastoma cell viability induced by hydrogen peroxide at 2 uM concentration; format: functional

| Compound | IC50 [1] [µM] | Increase (SH-SY5Y [2]) [%] | Increase (SH-SY5Y [3]) [%] | Increase (SH-SY5Y [4]) [%] |
| --- | --- | --- | --- | --- |
| O=c1cc(-c2ccc(O)cc2)oc2cc(O)cc(O)c12 [APIGENIN] | > 100 | 63.7 | 52.4 | 24.6 |
| O=c1cc(-c2ccc(O)c(O)c2)oc2cc(O)cc(O)c12 [LUTEOLIN] | 10.4 | 77.5 | 84 | 76.4 |

Now from value to compound, other results behind:

| IC50 [1] [µM] | Compound | Increase (SH-SY5Y [2]) [%] | Increase (SH-SY5Y [3]) [%] | Increase (SH-SY5Y [4]) [%] |
| --- | --- | --- | --- | --- |
| > 100 | O=c1cc(-c2ccccc2)oc2cc(O)cc(O)c12 [CHRYSIN] |  |  |  |
| 26.5 | O=C1O[C@H]([C@@H](O)CO)C(O)=C1O [ASCORBIC ACID] |  |  |  |
| > 100 | COc1c(O)cc(O)c2c(=O)cc(-c3ccccc3)oc12 [WOGONIN] |  |  |  |
